From PMC5986654, “Combined HAT/EZH2 modulation leads to cancer-selective cell death” (Oncotarget, 2018)

Tests used:
[1] = system: neuroblastoma SHSY5Y cells; experiment: Cell death induction in SHSY5Y cells; format: cell-based; details: 3 μM, 48 h
Description: When tested in neuroblastoma SHSY5Y cells at tetrahydro-4H -pyran-4-one MC2912 failed in inducing
3 μM for 48 h, MC2884 and its analogues furnished cell death in SHSY5Y cells, whereas its thio-analogue
(Supplementary SAR Table 1). In general, the SHSY5Y similarly to what observed in NB4 cells.
than NB4 cells. Anyway, also in this cell line the death in both cell lines such as MC2910, 2912, 2909,
(MC2909), and bis 3,5-dibromophenyl (MC2910) were acetylation and EZH2 deregulation (SAR Figure 2). In […]
3-phenyl-1-propan-1-one chain at N1 (MC3187), which 3).

[2] = system: U937 cells; experiment: U937 leukemia xenograft, human CD45+ cells in bone marrow; format: in vivo, mice; details: 1 mg/kg i.p., day 16
Description: Xenograft studies using NB4 and U937-AML cells were performed in NOG SCID mice under specific pathogen–free conditions. Cells (0.2 × 10^6 in 100 µL) were injected intravenously (retro orbital vein). Injected mice were randomly assigned to receive intra-peritoneal MC2884 (1 mg/kg) or vehicle for two weeks (8 doses) (10 mice per group). All animal procedures were performed in accordance with protocols approved by the local Committee for Animal Experimentation and with the permission of the Italian Health Ministry (n° 626/2015). At 16 days after injection, mice were sacrificed and the femurs and spleens were collected. Bone marrow (BM) and spleen cells were analyzed by FACS. To avoid non-specific stain, cells were mixed with mouse IgG and incubated with indicated antibodies for 30’. The mixture was depleted of erythrocytes and fixed (BD Pharmingen). […] Tumor growth was monitored by weekly bioluminescence imaging (BLI) acquisitions using an IVIS 3D Imaging System (Caliper Alameda, USA). To quantify bioluminescence, the integrated fluxes of photons (photons per s) within each area of interest were determined using the Living Images Software Package 3.2 (Caliper, Alameda, USA). […] Efficacy of drug treatment was assessed as inhibition of BLI emission comparing those MC2884 treated mice group and vehicle groups.

[3] = molecular target: T1, EZH2 (Homo sapiens, UniProt Q15910); experiment: EZH2 methyltransferase in vitro assay; format: biochemical
T1 construct: purchased BPS Biosciences
Description: EZH2 assays were performed following BPS Biosciences instructions and as previously described.

[4] = molecular target: T2, CYP1A (Homo sapiens, UniProt P05177); experiment: Cytochrome P450 inhibition, CYP1A; format: in vitro ADME; details: human liver microsomes, probe ethoxyresorufin
T2 construct: from tissue; host or cells: human liver microsomes
Description: This provided a dose of 2 mg free base material/kg when Cytochrome p450 inhibition (5 isoform iC50 administered iv in a 5 mL/kg dosing volume. determination) mouse terminal ip pK study ADME-Tox Cytochrome P450 inhibition of Compound MC2884 was given ip at a dose of 2 mg/kg MC2884 using human liver microsomes as an estimation to a group of 24 normally fed male CD1 mice in a 10 mL/ of in vitro metabolism. kg injection volume. Terminal blood samples (> 230 μL) MC2884 (0.1 μM–25 μM) was incubated with were taken under CO2 from groups of 3 mice at each of 8 human liver microsomes and NADPH in the presence time-points post dose (0.083, 0.25, 0.5, 1, 2, 4, 8 and 24 h) of a cytochrome P450 isoform-specific probe substrate. and placed into heparinized tubes. Samples were placed on ice For the CYP2C9, CYP2C19, CYP2D6 and CYP3A4 for no longer than 30 min before centrifugation (10,000 rpm × specific reactions, the metabolites were monitored by 3 min). […]
Cyp2C19 inhibition (0.1 mg/mL) and NADPH (1 mM) in the presence of the probe substrate midazolam (2.5 μM) for 5 min at Six test compound samples at concentrations 37° C. […] For the CYP1A incubations, the reactions microsomes (0.5 mg/mL) and NADPH (1 mM) in the were terminated by methanol, and the formation of the presence of the probe substrate mephenytoin (25 μM) metabolite, resorufin, was monitored by fluorescence for 60 min at 37° C. […]

T1 sequence (Q15910 whole entry): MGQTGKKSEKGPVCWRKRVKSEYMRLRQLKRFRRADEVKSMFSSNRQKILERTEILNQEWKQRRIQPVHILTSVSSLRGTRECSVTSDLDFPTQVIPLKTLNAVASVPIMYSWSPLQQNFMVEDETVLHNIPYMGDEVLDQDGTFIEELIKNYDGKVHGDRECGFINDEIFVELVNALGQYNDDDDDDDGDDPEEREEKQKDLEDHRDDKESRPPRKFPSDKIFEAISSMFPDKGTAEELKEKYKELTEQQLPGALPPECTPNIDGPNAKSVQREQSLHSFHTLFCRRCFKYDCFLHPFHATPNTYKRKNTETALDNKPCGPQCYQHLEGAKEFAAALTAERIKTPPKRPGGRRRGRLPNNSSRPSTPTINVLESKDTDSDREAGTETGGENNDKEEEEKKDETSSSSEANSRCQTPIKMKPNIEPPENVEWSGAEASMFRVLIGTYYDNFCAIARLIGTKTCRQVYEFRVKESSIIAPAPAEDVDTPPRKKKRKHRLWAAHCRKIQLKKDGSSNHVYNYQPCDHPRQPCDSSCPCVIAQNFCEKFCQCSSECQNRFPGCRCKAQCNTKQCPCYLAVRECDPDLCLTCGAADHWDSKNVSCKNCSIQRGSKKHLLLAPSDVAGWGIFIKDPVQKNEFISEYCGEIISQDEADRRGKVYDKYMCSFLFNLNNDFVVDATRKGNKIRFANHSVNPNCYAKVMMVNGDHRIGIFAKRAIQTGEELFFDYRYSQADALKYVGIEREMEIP
T1 sequence (O75530 whole entry partner): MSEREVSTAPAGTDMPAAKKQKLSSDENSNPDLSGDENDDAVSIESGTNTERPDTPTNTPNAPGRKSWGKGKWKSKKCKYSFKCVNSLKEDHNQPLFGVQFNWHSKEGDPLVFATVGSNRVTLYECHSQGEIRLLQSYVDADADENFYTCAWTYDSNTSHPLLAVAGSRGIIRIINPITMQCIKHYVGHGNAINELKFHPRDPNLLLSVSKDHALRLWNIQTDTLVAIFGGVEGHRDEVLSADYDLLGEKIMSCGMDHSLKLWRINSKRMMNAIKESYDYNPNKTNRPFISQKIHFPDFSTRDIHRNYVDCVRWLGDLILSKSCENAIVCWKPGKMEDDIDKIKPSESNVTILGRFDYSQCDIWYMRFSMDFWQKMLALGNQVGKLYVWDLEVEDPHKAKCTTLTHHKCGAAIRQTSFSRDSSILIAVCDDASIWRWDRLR
T1 sequence (Q15022 whole entry partner): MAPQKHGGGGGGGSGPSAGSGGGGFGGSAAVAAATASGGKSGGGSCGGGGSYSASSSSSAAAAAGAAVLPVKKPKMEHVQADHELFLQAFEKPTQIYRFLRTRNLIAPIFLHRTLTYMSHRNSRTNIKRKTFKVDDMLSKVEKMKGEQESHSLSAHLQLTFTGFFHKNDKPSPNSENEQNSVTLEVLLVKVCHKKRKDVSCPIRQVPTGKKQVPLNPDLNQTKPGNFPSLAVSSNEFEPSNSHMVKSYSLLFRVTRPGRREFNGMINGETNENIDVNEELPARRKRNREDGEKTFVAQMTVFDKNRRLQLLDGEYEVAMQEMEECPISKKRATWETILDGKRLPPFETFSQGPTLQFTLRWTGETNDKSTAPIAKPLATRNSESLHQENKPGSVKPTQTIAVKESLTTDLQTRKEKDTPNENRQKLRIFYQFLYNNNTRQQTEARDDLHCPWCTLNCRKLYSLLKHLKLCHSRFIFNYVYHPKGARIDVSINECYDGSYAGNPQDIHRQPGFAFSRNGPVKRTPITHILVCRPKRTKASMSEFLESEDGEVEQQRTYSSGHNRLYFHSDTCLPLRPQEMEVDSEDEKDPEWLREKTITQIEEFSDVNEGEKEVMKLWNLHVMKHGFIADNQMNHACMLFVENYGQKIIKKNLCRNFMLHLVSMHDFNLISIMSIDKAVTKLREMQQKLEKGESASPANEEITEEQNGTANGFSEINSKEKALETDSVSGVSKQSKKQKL
T1 sequence (Q09028 whole entry partner): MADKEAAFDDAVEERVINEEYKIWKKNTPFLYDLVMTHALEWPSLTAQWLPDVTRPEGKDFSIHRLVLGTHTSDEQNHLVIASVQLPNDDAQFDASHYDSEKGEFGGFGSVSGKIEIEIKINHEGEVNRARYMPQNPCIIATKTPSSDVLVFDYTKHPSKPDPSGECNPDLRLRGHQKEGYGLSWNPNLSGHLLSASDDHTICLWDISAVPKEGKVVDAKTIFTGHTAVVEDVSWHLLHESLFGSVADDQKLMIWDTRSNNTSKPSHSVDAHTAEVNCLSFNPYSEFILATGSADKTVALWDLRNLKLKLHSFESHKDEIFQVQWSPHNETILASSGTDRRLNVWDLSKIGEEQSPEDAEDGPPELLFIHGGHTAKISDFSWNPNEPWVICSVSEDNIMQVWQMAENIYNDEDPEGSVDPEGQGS
T1 sequence (Q6ZN18 whole entry partner): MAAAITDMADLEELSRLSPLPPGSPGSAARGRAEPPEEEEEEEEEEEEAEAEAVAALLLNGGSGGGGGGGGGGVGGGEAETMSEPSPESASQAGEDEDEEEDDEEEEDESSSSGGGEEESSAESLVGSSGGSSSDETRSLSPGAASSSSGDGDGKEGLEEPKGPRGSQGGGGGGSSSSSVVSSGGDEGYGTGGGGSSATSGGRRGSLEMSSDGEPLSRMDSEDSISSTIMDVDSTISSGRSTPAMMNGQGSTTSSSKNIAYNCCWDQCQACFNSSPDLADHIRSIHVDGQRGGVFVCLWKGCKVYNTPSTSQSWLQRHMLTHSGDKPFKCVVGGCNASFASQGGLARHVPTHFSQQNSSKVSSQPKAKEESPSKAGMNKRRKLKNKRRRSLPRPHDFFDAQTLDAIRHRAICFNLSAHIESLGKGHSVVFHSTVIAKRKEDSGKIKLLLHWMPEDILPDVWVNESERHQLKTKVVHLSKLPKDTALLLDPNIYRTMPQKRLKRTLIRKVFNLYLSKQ
T2 sequence (P05177 2-516 limits assumed): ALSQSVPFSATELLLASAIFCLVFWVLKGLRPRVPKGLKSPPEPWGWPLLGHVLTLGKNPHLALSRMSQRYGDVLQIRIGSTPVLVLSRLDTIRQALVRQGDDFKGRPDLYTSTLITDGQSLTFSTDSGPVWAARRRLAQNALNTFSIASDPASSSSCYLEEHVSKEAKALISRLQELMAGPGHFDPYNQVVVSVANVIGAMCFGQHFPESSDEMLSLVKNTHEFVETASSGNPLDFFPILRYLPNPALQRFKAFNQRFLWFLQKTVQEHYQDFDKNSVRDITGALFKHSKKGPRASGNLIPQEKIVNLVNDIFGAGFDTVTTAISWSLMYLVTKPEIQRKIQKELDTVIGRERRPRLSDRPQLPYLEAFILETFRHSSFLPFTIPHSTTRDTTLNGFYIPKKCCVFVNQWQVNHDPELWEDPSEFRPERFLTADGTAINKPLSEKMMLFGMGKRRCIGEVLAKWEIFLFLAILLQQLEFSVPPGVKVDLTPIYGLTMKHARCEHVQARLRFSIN

In the case of `O=C1/C(=C/c2cccc(Br)c2)CN(Cc2ccccc2)C/C1=C\c1cccc(Br)c1` [MC2884], the “% Cell death SHSY5Y cells” value [1] is reported as 19.1%, the “human CD45+ cells in the bone marrow reduced to” value [2] is reported as 24% and the inhibition at 5 µM ([3]; 5 μM) is reported as ~40%. The inhibition at 25 µM ([3]; 25 μM) was ~80% and the IC50 [4] was > 25 µM.
